# ChEMBL document CHEMBL3885861, “Open TG-GATES”
# Species on record: Rattus norvegicus
# Assay: Open TG-GATES - Regimen: Daily Repeat
# Format: toxicity, organism-based, Sprague-Dawley
# Set-up: regimen Daily Repeat, gender Male, age 6 weeks
# Details: in vivo, po, route gavage; for APTT / Bas / Eos / Fbg / Hb / Ht / Lym / MCH / MCHC / MCV / Mono / Neu / PT / Plat / RBC / Ret / WBC: tissue Blood; for KIDNEY_L / KIDNEY_R / KIDNEY_TOTAL: tissue Kidney; for LIVER: tissue Liver; for ALP / ALT / AST / BUN / CRE / Ca / DBIL / GLC / IP / K / LDH / Na / PL / RALB / TBIL / TC / TP / gamma-GTP / TG: tissue Plasma
# [1] = 50 mg/kg, 72 h, dose level Middle, time 3 day
# [2] = 50 mg/kg, […], dose level Middle, time 7 day
# [3] = 50 mg/kg, […], dose level Middle, time 14 day
# [4] = 50 mg/kg, […], dose level Middle, time 28 day
# [5] = 150 mg/kg, 72 h, dose level High, time 3 day
# [6] = 150 mg/kg, […], dose level High, time 7 day
# [7] = 150 mg/kg, […], dose level High, time 14 day
# [8] = 150 mg/kg, […], dose level High, time 28 day
structure (smiles),measurement,setting,value
Oc1ncnc2[nH]ncc12 [ALLOPURINOL],APTT,[1],16.2 s
same,Bas,[1],0%
same,Eos,[1],1.4%
same,Fbg,[1],261.6 mg/dL
same,Hb,[1],13.5 g/dL
same,Ht,[1],40%
same,Lym,[1],75%
same,MCH,[1],21.9 pg
same,MCHC,[1],33.7%
same,MCV,[1],64.9 fL
same,Mono,[1],9.2%
same,Neu,[1],14.4%
same,PT,[1],12.3 s
same,Plat,[1],108.7 x10_4/uL
same,RBC,[1],618 x10_4/ul
same,Ret,[1],6.3%
same,WBC,[1],139.1 x10_2/uL
same,KIDNEY_L,[1],1.2 g
same,KIDNEY_R,[1],1.2 g
same,KIDNEY_TOTAL,[1],2.3 g
same,LIVER,[1],11.5 g
same,ALP,[1],918 IU/L
same,ALT,[1],33.8 IU/L
same,AST,[1],65.8 IU/L
same,BUN,[1],20.6 mg/dL
same,CRE,[1],0.5 mg/dL
same,Ca,[1],11.1 mg/dL
same,DBIL,[1],0.004 mg/dL
same,GLC,[1],194.4 mg/dL
same,IP,[1],7 mg/dL
same,K,[1],4.7 meq/L
same,LDH,[1],111.4 IU/L
same,Na,[1],138.2 meq/L
same,PL,[1],150 mg/dL
same,RALB,[1],3.9 g/dL
same,TBIL,[1],0.3 mg/dL
same,TC,[1],79.4 mg/dL
same,TP,[1],6.1 g/dL
same,gamma-GTP,[1],2 IU/L
same,TERMINAL_BW,[2],270.7 g
same,TERMINAL_BW,[3],308.6 g
same,TERMINAL_BW,[4],380.1 g
same,APTT,[2],16.4 s
same,Bas,[2],0%
same,Eos,[2],0.4%
same,Fbg,[2],246 mg/dL
same,Hb,[2],14.2 g/dL
same,Ht,[2],42.3%
same,Lym,[2],86.4%
same,MCH,[2],21.4 pg
same,MCHC,[2],33.6%
same,MCV,[2],63.9 fL
same,Mono,[2],3.8%
same,Neu,[2],9.4%
same,PT,[2],11.8 s
same,Plat,[2],120 x10_4/uL
same,RBC,[2],661.2 x10_4/ul
same,Ret,[2],5.3%
same,WBC,[2],129.4 x10_2/uL
same,APTT,[3],16.5 s
same,Bas,[3],0%
same,Eos,[3],0.6%
same,Fbg,[3],232.2 mg/dL
same,Hb,[3],14.9 g/dL
same,Ht,[3],44.6%
same,Lym,[3],84%
same,MCH,[3],20.8 pg
same,MCHC,[3],33.4%
same,MCV,[3],62.2 fL
same,Mono,[3],3.6%
same,Neu,[3],12.2%
same,PT,[3],11.9 s
same,Plat,[3],111.6 x10_4/uL
same,RBC,[3],716 x10_4/ul
same,Ret,[3],4.2%
same,WBC,[3],114 x10_2/uL
same,APTT,[4],16.8 s
same,Bas,[4],0%
same,Eos,[4],1%
same,Fbg,[4],225.6 mg/dL
same,Hb,[4],15.2 g/dL
same,Ht,[4],45%
same,Lym,[4],78.8%
same,MCH,[4],19.8 pg
same,MCHC,[4],33.8%
same,MCV,[4],58.5 fL
same,Mono,[4],4.8%
same,Neu,[4],15.6%
same,PT,[4],12.1 s
same,Plat,[4],101.2 x10_4/uL
same,RBC,[4],770.4 x10_4/ul
same,Ret,[4],2.9%
same,WBC,[4],128.2 x10_2/uL
same,KIDNEY_L,[2],1.2 g
same,KIDNEY_R,[2],1.2 g
same,KIDNEY_TOTAL,[2],2.4 g
same,KIDNEY_L,[3],1.3 g
same,KIDNEY_R,[3],1.3 g
same,KIDNEY_TOTAL,[3],2.5 g
same,KIDNEY_L,[4],1.5 g
same,KIDNEY_R,[4],1.5 g
same,KIDNEY_TOTAL,[4],3.1 g
same,LIVER,[2],13.3 g
same,LIVER,[3],14 g
same,LIVER,[4],15.1 g
same,ALP,[2],917.6 IU/L
same,ALT,[2],33.4 IU/L
same,AST,[2],64 IU/L
same,BUN,[2],20.2 mg/dL
same,CRE,[2],0.5 mg/dL
same,Ca,[2],11.4 mg/dL
same,DBIL,[2],0.034 mg/dL
same,GLC,[2],207.2 mg/dL
same,IP,[2],7.6 mg/dL
same,K,[2],4.3 meq/L
same,LDH,[2],87 IU/L
same,Na,[2],140.2 meq/L
same,PL,[2],158.2 mg/dL
same,RALB,[2],3.9 g/dL
same,TBIL,[2],0.3 mg/dL
same,TC,[2],74.4 mg/dL
same,TG,[2],144.4 mg/dL
same,TP,[2],6.1 g/dL
same,gamma-GTP,[2],1.2 IU/L
same,ALP,[3],645.2 IU/L
same,ALT,[3],29.8 IU/L
same,AST,[3],63 IU/L
same,BUN,[3],20.2 mg/dL
same,CRE,[3],0.6 mg/dL
same,DBIL,[3],0.002 mg/dL
same,GLC,[3],200 mg/dL
same,IP,[3],7.5 mg/dL
same,K,[3],4.5 meq/L
same,LDH,[3],71.2 IU/L
same,Na,[3],139.6 meq/L
same,PL,[3],147.4 mg/dL
same,RALB,[3],3.8 g/dL
same,TBIL,[3],0.3 mg/dL
same,TC,[3],65.8 mg/dL
same,TG,[3],131.2 mg/dL
same,TP,[3],6.2 g/dL
same,gamma-GTP,[3],1.6 IU/L
same,ALP,[4],574.8 IU/L
same,ALT,[4],29.2 IU/L
same,AST,[4],60.6 IU/L
same,BUN,[4],22 mg/dL
same,CRE,[4],0.6 mg/dL
same,DBIL,[4],0.014 mg/dL
same,GLC,[4],187.4 mg/dL
same,IP,[4],6.3 mg/dL
same,K,[4],4.6 meq/L
same,LDH,[4],63.6 IU/L
same,Na,[4],139.4 meq/L
same,PL,[4],145.8 mg/dL
same,RALB,[4],4 g/dL
same,TBIL,[4],0.3 mg/dL
same,TC,[4],66 mg/dL
same,TG,[4],147 mg/dL
same,TP,[4],6.3 g/dL
same,gamma-GTP,[4],1.6 IU/L
same,TERMINAL_BW,[5],225 g
same,APTT,[5],15.8 s
same,Bas,[5],0%
same,Eos,[5],0.8%
same,Fbg,[5],368.2 mg/dL
same,Hb,[5],14 g/dL
same,Ht,[5],41.8%
same,Lym,[5],70.2%
same,MCH,[5],21.7 pg
same,MCHC,[5],33.4%
same,MCV,[5],65.1 fL
same,Mono,[5],13%
same,Neu,[5],16%
same,PT,[5],12.5 s
same,Plat,[5],115.9 x10_4/uL
same,RBC,[5],642.4 x10_4/ul
same,Ret,[5],5.2%
same,WBC,[5],122.6 x10_2/uL
same,KIDNEY_L,[5],1.6 g
same,KIDNEY_R,[5],1.7 g
same,KIDNEY_TOTAL,[5],3.2 g
same,LIVER,[5],9.7 g
same,ALP,[5],838.2 IU/L
same,ALT,[5],27.6 IU/L
same,AST,[5],61.2 IU/L
same,BUN,[5],35.2 mg/dL
same,CRE,[5],0.8 mg/dL
same,Ca,[5],11.5 mg/dL
same,DBIL,[5],0 mg/dL
same,GLC,[5],192 mg/dL
same,IP,[5],8 mg/dL
same,K,[5],4.8 meq/L
same,LDH,[5],165.4 IU/L
same,Na,[5],139 meq/L
same,PL,[5],142 mg/dL
same,RALB,[5],3.8 g/dL
same,TBIL,[5],0.3 mg/dL
same,TC,[5],87 mg/dL
same,TG,[5],47.8 mg/dL
same,TP,[5],6.3 g/dL
same,gamma-GTP,[5],4.2 IU/L
same,TERMINAL_BW,[6],245.1 g
same,TERMINAL_BW,[7],248.1 g
same,TERMINAL_BW,[8],319.9 g
same,APTT,[6],16.2 s
same,Bas,[6],0%
same,Eos,[6],1%
same,Fbg,[6],300.7 mg/dL
same,Hb,[6],14.2 g/dL
same,Ht,[6],42.6%
same,Lym,[6],77.7%
same,MCH,[6],21 pg
same,MCHC,[6],33.2%
same,MCV,[6],63.2 fL
same,Mono,[6],6.7%
same,Neu,[6],15.3%
same,PT,[6],12.9 s
same,Plat,[6],122.5 x10_4/uL
same,RBC,[6],676.7 x10_4/ul
same,Ret,[6],2.8%
same,WBC,[6],161 x10_2/uL
same,APTT,[7],16.1 s
same,Bas,[7],0%
same,Eos,[7],1%
same,Fbg,[7],414 mg/dL
same,Hb,[7],14.4 g/dL
same,Ht,[7],42.8%
same,Lym,[7],52%
same,MCH,[7],19.8 pg
same,MCHC,[7],33.5%
same,MCV,[7],59 fL
same,Mono,[7],7%
same,Neu,[7],40.4%
same,PT,[7],13.3 s
same,RBC,[7],725 x10_4/ul
same,Ret,[7],2.1%
same,WBC,[7],209.4 x10_2/uL
same,APTT,[8],15.3 s
same,Bas,[8],0%
same,Eos,[8],0.5%
same,Fbg,[8],319.5 mg/dL
same,Hb,[8],13.7 g/dL
same,Ht,[8],40.8%
same,Lym,[8],74.8%
same,MCH,[8],19.2 pg
same,MCHC,[8],33.6%
same,MCV,[8],57.1 fL
same,Mono,[8],3.2%
same,Neu,[8],21%
same,PT,[8],13 s
same,Plat,[8],117.9 x10_4/uL
same,RBC,[8],713.5 x10_4/ul
same,Ret,[8],3.9%
same,WBC,[8],344.2 x10_2/uL
same,KIDNEY_L,[6],1.8 g
same,KIDNEY_R,[6],1.9 g
same,KIDNEY_TOTAL,[6],3.7 g
same,KIDNEY_L,[7],2.8 g
same,KIDNEY_R,[7],2.9 g
same,KIDNEY_TOTAL,[7],5.7 g
same,KIDNEY_L,[8],3 g
same,KIDNEY_R,[8],2.7 g
same,KIDNEY_TOTAL,[8],5.6 g
same,LIVER,[8],12.1 g
same,ALP,[6],697 IU/L
same,ALT,[6],24.7 IU/L
same,AST,[6],60.7 IU/L
same,BUN,[6],38.7 mg/dL
same,CRE,[6],0.8 mg/dL
same,Ca,[6],11 mg/dL
same,DBIL,[6],0.0367 mg/dL
same,GLC,[6],190 mg/dL
same,IP,[6],5.6 mg/dL
same,K,[6],4.6 meq/L
same,LDH,[6],96.3 IU/L
same,Na,[6],141.3 meq/L
same,PL,[6],139.7 mg/dL
same,RALB,[6],3.8 g/dL
same,TBIL,[6],0.2 mg/dL
same,TC,[6],80.7 mg/dL
same,TG,[6],64.3 mg/dL
same,TP,[6],6.2 g/dL
same,gamma-GTP,[6],3 IU/L
same,ALP,[7],608.6 IU/L
same,ALT,[7],23.4 IU/L
same,AST,[7],62.8 IU/L
same,BUN,[7],66.2 mg/dL
same,CRE,[7],1 mg/dL
same,DBIL,[7],0 mg/dL
same,GLC,[7],177 mg/dL
same,IP,[7],5.1 mg/dL
same,K,[7],4.5 meq/L
same,LDH,[7],150.8 IU/L
same,Na,[7],140.2 meq/L
same,PL,[7],154.8 mg/dL
same,RALB,[7],3.3 g/dL
same,TBIL,[7],0.3 mg/dL
same,TC,[7],91.2 mg/dL
same,TP,[7],6.1 g/dL
same,gamma-GTP,[7],6 IU/L
same,ALP,[8],482 IU/L
same,ALT,[8],29.8 IU/L
same,AST,[8],68.8 IU/L
same,BUN,[8],61.2 mg/dL
same,CRE,[8],1.1 mg/dL
same,Ca,[8],11.3 mg/dL
same,DBIL,[8],0.015 mg/dL
same,GLC,[8],163.5 mg/dL
same,IP,[8],5.2 mg/dL
same,K,[8],4.8 meq/L
same,LDH,[8],150.8 IU/L
same,Na,[8],141.5 meq/L
same,PL,[8],162.5 mg/dL
same,RALB,[8],3.7 g/dL
same,TBIL,[8],0.2 mg/dL
same,TC,[8],98.2 mg/dL
same,TG,[8],79 mg/dL
same,TP,[8],6.3 g/dL
same,gamma-GTP,[8],3.8 IU/L
